Biological target: T1, human mAChR M4 (Homo sapiens, UniProt P08173)
T1 construct: expressed in transfected cells; host or cells: CHO-K1 (American Type Culture Collection), stably expressing hM4 and Gqi5
T1 sequence (P08173 1-479): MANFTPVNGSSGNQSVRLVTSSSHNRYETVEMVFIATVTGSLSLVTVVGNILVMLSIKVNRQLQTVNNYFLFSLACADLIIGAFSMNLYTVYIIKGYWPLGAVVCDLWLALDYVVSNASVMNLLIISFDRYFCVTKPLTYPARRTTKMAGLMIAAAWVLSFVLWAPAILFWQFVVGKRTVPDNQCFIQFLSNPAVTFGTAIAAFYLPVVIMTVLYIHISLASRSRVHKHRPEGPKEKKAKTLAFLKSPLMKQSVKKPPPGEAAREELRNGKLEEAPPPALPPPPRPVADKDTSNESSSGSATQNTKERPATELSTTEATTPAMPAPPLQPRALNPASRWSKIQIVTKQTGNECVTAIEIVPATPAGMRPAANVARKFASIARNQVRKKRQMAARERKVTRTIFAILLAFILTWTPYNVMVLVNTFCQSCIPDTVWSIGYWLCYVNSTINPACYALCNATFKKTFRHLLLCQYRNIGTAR
Experiment: mAChR M4 cell-based functional assay: calcium mobilization (Fluo-4, FDSS), potentiation of EC20 acetylcholine response in hM4-Gqi5 CHO-K1 cells
Conditions: human M4; for Emax at 30 µM: CHO-K1, % ACh maximum at 30 μM; for EC50: potentiation of EC20 acetylcholine response, calcium mobilization
Procedure, shortened: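 CHO-K1 cells stably co-expressing human M4 and chimeric Gqi5, loaded with Fluo-4 AM (50 min, 37 °C). Compounds in 11-point 1:3 series added first; EC20 acetylcholine added at 144 s and again at 230 s. Calcium read on FDSS at 1 Hz; EC50 and Emax from four-parameter logistic fit of potentiated EC20 response.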

Compound | Emax at 30 µM | EC50
Cc1cc(=O)n2nc(N3CCc4ncc(-c5cncc(Cl)c5)cc4C3)c(C)c(C)c2n1 [Compound 1-123, 7-(3-(5-chloropyridin-3-yl)-7,8-dihydro-1,6-naphthyridin-6(5H)-yl)-2,8,9-trimethyl-4H-pyrimido[1,2-b]pyridazin-4-one] | 89% | 858 nM
Cc1cc(=O)n2nc(N3CCc4ncc(-c5cncc(C(F)(F)F)c5)cc4C3)c(C)c(C)c2n1 [Compound 1-124, 2,8,9-trimethyl-7-(3-(5-(trifluoromethyl)pyridin-3-yl)-7,8-dihydro-1,6-naphthyridin-6(5H)-yl)-4H-pyrimido[1,2-b]pyridazin-4-one] | 84% | 3410 nM
Cc1cc(=O)n2nc(N3CCc4ncc(-c5cnccn5)cc4C3)c(C)c(C)c2n1 [Compound 1-125, 2,8,9-trimethyl-7-(3-(pyrazin-2-yl)-7,8-dihydro-1,6-naphthyridin-6(5H)-yl)-4H-pyrimido[1,2-b]pyridazin-4-one] | 97% | 368 nM
Cc1cc(=O)n2nc(N3CCc4ncc(-c5cnccc5Cl)cc4C3)c(C)c(C)c2n1 [Compound 1-126, 7-(3-(4-chloropyridin-3-yl)-7,8-dihydro-1,6-naphthyridin-6(5H)-yl)-2,8,9-trimethyl-4H-pyrimido[1,2-b]pyridazin-4-one] | 88% | 758 nM
Cc1cncc(-c2cnc3c(c2)CN(c2nn4c(=O)cc(C)nc4c(C)c2C)CC3)c1 [Compound 1-127, 2,8,9-trimethyl-7-(3-(5-methylpyridin-3-yl)-7,8-dihydro-1,6-naphthyridin-6(5H)-yl)-4H-pyrimido[1,2-b]pyridazin-4-one] | 86% | 1240 nM
Cc1cc(=O)n2nc(N3CCc4ncc(-c5ccc(C6CC6)nc5)cc4C3)c(C)c(C)c2n1 [Compound 1-128, 7-(3-(6-cyclopropylpyridin-3-yl)-7,8-dihydro-1,6-naphthyridin-6(5H)-yl)-2,8,9-trimethyl-4H-pyrimido[1,2-b]pyridazin-4-one] | 80% | 768 nM
Cc1cc(=O)n2nc(N3CCc4ncc(-c5cccnc5)cc4C3)c(C)c(C)c2n1 [Compound 1-129, 2,8,9-trimethyl-7-(3-(pyridin-3-yl)-7,8-dihydro-1,6-naphthyridin-6(5H)-yl)-4H-pyrimido[1,2-b]pyridazin-4-one] | 91% | 1620 nM
Cc1cc(=O)n2nc(N3CCc4ncc(-c5ccc(C(F)(F)F)nc5)cc4C3)c(C)c(C)c2n1 [Compound 1-130, 2,8,9-trimethyl-7-(3-(6-(trifluoromethyl)pyridin-3-yl)-7,8-dihydro-1,6-naphthyridin-6(5H)-yl)-4H-pyrimido[1,2-b]pyridazin-4-one] | 84% | 8090 nM
Cc1cc(=O)n2nc(N3CCc4ncc(-c5cn6ccnc6cc5C)cc4C3)c(C)c(C)c2n1 [Compound 1-131, 2,8,9-trimethyl-7-(3-(7-methylimidazo[1,2-a]pyridin-6-yl)-7,8-dihydro-1,6-naphthyridin-6(5H)-yl)-4H-pyrimido[1,2-b]pyridazin-4-one] | 62% | 1760 nM
Cc1cc(=O)n2nc(N3CCc4ncc(-c5ccnnc5)cc4C3)c(C)c(C)c2n1 [Compound 1-132, 2,8,9-trimethyl-7-(3-(pyridazin-4-yl)-7,8-dihydro-1,6-naphthyridin-6(5H)-yl)-4H-pyrimido[1,2-b]pyridazin-4-one] | 92% | 798 nM
Cc1cc(=O)n2nc(N3CCc4ncc(-c5ccc6nccn6c5)cc4C3)c(C)c(C)c2n1 [Compound 1-133, 7-(3-(imidazo[1,2-a]pyridin-6-yl)-7,8-dihydro-1,6-naphthyridin-6(5H)-yl)-2,8,9-trimethyl-4H-pyrimido[1,2-b]pyridazin-4-one] | 79% | 556 nM
Cc1cc(=O)n2nc(N3CCc4ncc(-c5cncc(F)c5)cc4C3)c(C)c(C)c2n1 [Compound 1-134, 7-(3-(5-fluoropyridin-3-yl)-7,8-dihydro-1,6-naphthyridin-6(5H)-yl)-2,8,9-trimethyl-4H-pyrimido[1,2-b]pyridazin-4-one] | 88% | 700 nM
Cc1ccc(-c2cnc3c(c2)CN(c2nn4c(=O)cc(C)nc4c(C)c2C)CC3)cc1 [Compound 1-135, 2,8,9-trimethyl-7-(3-(p-tolyl)-7,8-dihydro-1,6-naphthyridin-6(5H)-yl)-4H-pyrimido[1,2-b]pyridazin-4-one] | 97% | 626 nM
Cc1ccc(-c2cnc3c(c2)CN(c2nn4c(=O)cc(C)nc4c(C)c2C)CC3)c(C)c1 [Compound 1-136, 7-(3-(2,4-dimethylphenyl)-7,8-dihydro-1,6-naphthyridin-6(5H)-yl)-2,8,9-trimethyl-4H-pyrimido[1,2-b]pyridazin-4-one] | 102% | 633 nM
Cc1cc(=O)n2nc(N3CCc4ncc(-c5ccccc5C)cc4C3)c(C)c(C)c2n1 [Compound 1-137, 2,8,9-trimethyl-7-(3-(o-tolyl)-7,8-dihydro-1,6-naphthyridin-6(5H)-yl)-4H-pyrimido[1,2-b]pyridazin-4-one] | 109% | 1730 nM
Cc1cc(=O)n2nc(N3CCc4ncc(-c5cc(F)ccc5C)cc4C3)c(C)c(C)c2n1 [Compound 1-138, 7-(3-(5-fluoro-2-methylphenyl)-7,8-dihydro-1,6-naphthyridin-6(5H)-yl)-2,8,9-trimethyl-4H-pyrimido[1,2-b]pyridazin-4-one] | 87% | 190 nM
COc1cc(C)c(-c2cnc3c(c2)CN(c2nn4c(=O)ccnc4c(C)c2C)CC3)cn1 [Compound 1-139, 7-(3-(6-methoxy-4-methylpyridin-3-yl)-7,8-dihydro-1,6-naphthyridin-6(5H)-yl)-8,9-dimethyl-4H-pyrimido[1,2-b]pyridazin-4-one] | 98% | 77 nM
COc1ccncc1-c1cnc2c(c1)CN(c1nn3c(=O)ccnc3c(C)c1C)CC2 [Compound 1-140, 7-(3-(4-methoxypyridin-3-yl)-7,8-dihydro-1,6-naphthyridin-6(5H)-yl)-8,9-dimethyl-4H-pyrimido[1,2-b]pyridazin-4-one] | 89% | 360 nM
Cc1c(N2CCc3ncc(-c4ccnnc4)cc3C2)nn2c(=O)ccnc2c1C [Compound 1-141, 8,9-dimethyl-7-(3-(pyridazin-4-yl)-7,8-dihydro-1,6-naphthyridin-6(5H)-yl)-4H-pyrimido[1,2-b]pyridazin-4-one] | 96% | 410 nM
Cc1c(N2CCc3ncc(-c4cnccc4C(F)(F)F)cc3C2)nn2c(=O)ccnc2c1C [Compound 1-142, 8,9-dimethyl-7-(3-(4-(trifluoromethyl)pyridin-3-yl)-7,8-dihydro-naphthyridin-6(5H)-yl)-4H-pyrimido[1,2-b]pyridazin-4-one] | 53% | 371 nM
Cc1ccc(-c2cnc3c(c2)CN(c2nn4c(=O)ccnc4c(C)c2C)CC3)cc1F [Compound 1-143, 7-(3-(3-fluoro-4-methylphenyl)-7,8-dihydro-1,6-naphthyridin-6(5H)-yl)-8,9-dimethyl-4H-pyrimido[1,2-b]pyridazin-4-one] | 102% | 416 nM
Cc1c(N2CCc3ncc(-c4cncc(Cl)c4)cc3C2)nn2c(=O)ccnc2c1C [Compound 1-144, 7-(3-(5-chloropyridin-3-yl)-7,8-dihydro-1,6-naphthyridin-6(5H)-yl)-8,9-dimethyl-4H-pyrimido[1,2-b]pyridazin-4-one] | 82% | 246 nM
Cc1c(N2CCc3ncc(-c4cnccc4Cl)cc3C2)nn2c(=O)ccnc2c1C [Compound 1-145, 7-(3-(4-chloropyridin-3-yl)-7,8-dihydro-1,6-naphthyridin-6(5H)-yl)-8,9-dimethyl-4H-pyrimido[1,2-b]pyridazin-4-one] | 88% | 122 nM
Cc1c(N2CCc3ncc(-c4cnc(Cl)c(F)c4)cc3C2)nn2c(=O)ccnc2c1C [Compound 1-146, 7-(3-(6-chloro-5-fluoropyridin-3-yl)-7,8-dihydro-1,6-naphthyridin-6(5H)-yl)-8,9-dimethyl-4H-pyrimido[1,2-b]pyridazin-4-one] | 86% | 399 nM
Cc1cncc(-c2cnc3c(c2)CN(c2nn4c(=O)ccnc4c(C)c2C)CC3)c1 [Compound 1-147, 8,9-dimethyl-7-(3-(5-methylpyridin-3-yl)-7,8-dihydro-1,6-naphthyridin-6(5H)-yl)-4H-pyrimido[1,2-b]pyridazin-4-one] | 80% | 305 nM
Cc1c(N2CCc3ncc(-c4cccnc4)cc3C2)nn2c(=O)ccnc2c1C [Compound 1-148, 8,9-dimethyl-7-(3-(pyridin-3-yl)-7,8-dihydro-1,6-naphthyridin-6(5H)-yl)-4H-pyrimido[1,2-b]pyridazin-4-one] | 89% | 344 nM
Cc1cc(F)ncc1-c1cnc2c(c1)CN(c1nn3c(=O)ccnc3c(C)c1C)CC2 [Compound 1-149, 7-(3-(6-Fluoro-4-methylpyridin-3-yl)-7,8-dihydro-1,6-naphthyridin-6(5H)-yl)-8,9-dimethyl-4H-pyrimido[1,2-b]pyridazin-4-one] | 89% | 68 nM

From US20250101041A1, “POSITIVE ALLOSTERIC MODULATORS OF THE MUSCARINIC ACETYLCHOLINE RECEPTOR M4” (Vanderbilt University, priority 2022, published 2025)
